According to US20220000967A1, “SYNTHETIC PEPTIDES INDUCING IMMUNOGENIC CELL DEATH” (SORBONNE UNIVERSITE, priority 2018, published 2022):
Like-named read-outs stand apart in the source and are kept apart here.

Key:
[1] = Cell death by Annexin-V-APC/PI flow cytometry; assay type: cell-based; conditions: MOLT-4, 2h; read-out: cytotoxic concentration that induces around 50% of cell death (CC50)
Experimental: (§1) CEM, MOLT-4 (T-acute lymphoblastic leukemia, T-ALL), and L5178Y-R (murine lymphoblastic T cell line) were obtained from ATCC. Human and murine PBMCs, human CD4+ and CD8+ T cells, and primary lymphoid organ's cells were obtained from healthy individuals. Cells were maintained in RPMI-1640 medium supplemented with 10% of fetal bovine serum, 2 mM L-glutamine, 100 U/mL penicillin-streptomycin (GIBCO by Life Technologies, Grand Island, N.Y., USA), and incubated at 37° C. in a controlled humidified atmosphere with 5% CO2. Cell count was performed using trypan blue (0.4% Sigma-Aldrich), a Neubauer chamber and an optic microscope (Zeiss Primo Star) as proposed by the ATCC's standard protocols. Flow Cytometry. Cell Death Induction, and Inhibition Annexin-V-allophycocyanin (Ann-V-APC 0.1 μg/ml; BD Pharingen, San Jose Calif., USA), propidium iodide (PI, 0.5 μg/ml Sigma-Aldrich), and tetramethylrhodamine ethyl ester (TMRE, 20 nM, Sigma-Aldrich) were used for phosphatidylserine exposure, cell viability, and mitochondrial transmembrane potential (UΨm) quantification, respectively, in a BD AccuryC6 flow cytometer (BD Biosciences) (total population 10,000 cells). Data were analyzed using FlowJo software. 1×10^6 cells/mL were treated for 2h with PKHB1 (as indicated). For the inhibition assays, calcium chelator, BAPTA (5 mM, CalbioChem, Merck, Billerica Mass., USA); or the pancaspase inhibitor Q-VD-OPh (QVD, 10 μM, BioVision, Milpitas Calif., USA); were added 30 min before PKHB1.

MOLT-4 [2] = assay: Cell death by Annexin-V-APC/PI flow cytometry; assay type: cell-based; conditions: MOLT-4, 2h; for cell death percentage: PKHB1 200 μM
Experimental: as §1

CEM [3] = assay: Western blot of HSP90, HSP70, CRT and HMGB1; assay type: cell-based, human; conditions: CC50 and CC100, 2h
Experimental: (§2) 1×10^6 cells/mL were seeded in a serum-free culture medium and treated with PKHB1 (CC50 and CC100 for each cell line) or left alone (Control) for 2h. Supernatants was recovered and lysed with lysis buffer (20 mM Tris pH 6.8, 2 mM EDTA, 300 mM NaCl and SDS 2%). Protein concentration was measured using the DC Protein Assay kit (Bio-Rad, Hercules, Calif., USA) and 50 μg of protein were loaded into SDS-PAGE gels. After blotting, nitrocellulose filters were probed with primary antibodies (1:1000) against HMGB1 (HAP46.5: sc-56698), HSP70 (C92F3A-5: sc-66048), HSP90 (F-8: SC-13119) and Calreticulin (F-4: sc373863). Anti-mouse or anti-rabbit-HRP served as secondary antibodies (Santa Cruz Biotechnology, CA, USA). Visualization was performed with ECL substrate system (Thermo Scientific, Waltham, Mass., USA).

MOLT-4 [4] = assay: Western blot of HSP90, HSP70, CRT and HMGB1; assay type: cell-based, human; conditions: CC50 and CC100, 2h
Experimental: as §2

[5] = test system: murine PBMCs and primary cultures of bone marrow, spleen, thymus and lymph nodes; assay: Selectivity on non-cancerous murine cells (Ann/PI, MTT); assay type: cell-based; conditions: lymph nodes of healthy BALB/c mice
Experimental: (§3) Peripheral blood was collected from 10 healthy volunteers after obtaining written informed consent. This study was approved by the Institutional Ethics Committee at the Universidad Autonoma de Nuevo Leon, College of Biological Sciences. The animal study was approved by the Animal Ethical Committee (CEIBA), Number: 01/2015. All experiments were conducted according to Mexican regulation NOM-062-ZOO-1999. The blood from sacrificed mice was obtained by cardiac puncture, while human blood was collected by venipuncture. Peripheral blood mononuclear cells (PBMCs) isolation was performed by density gradient centrifugation using Ficoll-Hypaque-1119 (Sigma-Aldrich, St Louis, Mo., USA). 4×10^5 white blood cells were washed and seeded. CD4+/CD8+ characterization was done using primary antibodies (CD4; MT310 sc-19641 and CD8; 32-M4 sc-1177, Santa Cruz, Calif., USA).
Spleen, thymus, lymphatic node, and bone marrow cells were obtained from female BALB/c mice post-sacrifice. Spleen cells were obtained through perfusion, thymocytes and lymphatic node cells were obtained by maceration, and bone morrow cells (from one femur and tibia per mouse) were flushed with PBS. Cells washed and counted using trypan blue staining.
CEM, MOLT-4 (T-acute lymphoblastic leukemia, T-ALL), and L5178Y-R (murine lymphoblastic T cell line) were obtained from ATCC. […] Data were analyzed using FlowJo software. […]

[6] = test system: human PBMCs and CD4+ and CD8+ human T cells from healthy donors; assay: Selectivity on non-cancerous human cells (Annexin-V/PI); assay type: cell-based
Experimental: as §3, with “CD4+/CD8+ characterization was done using primary antibodies (CD4; MT310 sc-19641 and CD8; 32-M4 sc-1177, Santa Cruz, Calif., USA).” left out
CEM, MOLT-4 (T-acute lymphoblastic leukemia, T-ALL), and L5178Y-R (murine lymphoblastic T cell line) were obtained from ATCC. […] Cell Death Induction, and Inhibition Annexin-V-allophycocyanin (Ann-V-APC 0.1 μg/ml; BD Pharingen, San Jose Calif., USA), propidium iodide (PI, 0.5 μg/ml Sigma-Aldrich), and tetramethylrhodamine ethyl ester (TMRE, 20 nM, Sigma-Aldrich) were used for phosphatidylserine exposure, cell viability, and mitochondrial transmembrane potential (UΨm) quantification, respectively, in a BD AccuryC6 flow cytometer (BD Biosciences) (total population 10,000 cells). Data were analyzed using FlowJo software. […]

CEM [7] = assay: Loss of mitochondrial transmembrane potential (TMRE); assay type: cell-based, human; conditions: PKHB1 CC50, 2h
Experimental: as §1, with “For the inhibition assays, calcium chelator, BAPTA (5 mM, CalbioChem, Merck, Billerica Mass., USA); or the pancaspase inhibitor Q-VD-OPh (QVD, 10 μM, BioVision, Milpitas Calif., USA); were added 30 min before PKHB1.” left out

MOLT-4 [8] = assay: as above; assay type: cell-based, human; conditions: PKHB1 CC50, 2h
Experimental: as §1, with “For the inhibition assays, calcium chelator, BAPTA (5 mM, CalbioChem, Merck, Billerica Mass., USA); or the pancaspase inhibitor Q-VD-OPh (QVD, 10 μM, BioVision, Milpitas Calif., USA); were added 30 min before PKHB1.” left out

L5178Y-R [9] = assay: ATP release assay (luciferase bioluminescence); assay type: cell-based, murine; conditions: CC50 and CC100, 2h
Experimental: 1×10^6 cells/mL were treated with PKHB1 (CC50 and CC100 for each cell lines) for 2h. Supernatants were used to assess extracellular ATP by a luciferase assay (ENLITEN kit, Promega, Madison Wis., USA) following the manufacturer's instructions. Bioluminescence was assessed in a microplate reader (Synergy HT, BioTek, Software Gen5, Winooski, Vt., USA) at 560 nm.

L5178Y-R [10] = assay: Loss of mitochondrial transmembrane potential (TMRE); assay type: cell-based, murine; conditions: PKHB1 CC50, 2h
Experimental: as §1, with “For the inhibition assays, calcium chelator, BAPTA (5 mM, CalbioChem, Merck, Billerica Mass., USA); or the pancaspase inhibitor Q-VD-OPh (QVD, 10 μM, BioVision, Milpitas Calif., USA); were added 30 min before PKHB1.” left out

CEM [11] = assay: Cell death by Annexin-V-APC/PI flow cytometry; assay type: cell-based, human; conditions: 2h; for cell death percentage: PKHB1 200 μM
Experimental: as §1

[12] = Cell death by Annexin-V-APC/PI flow cytometry; assay type: cell-based, human; conditions: CEM, 2h; read-out: cytotoxic concentration that induces around 50% of cell death (CC50)
Experimental: as §1

L5178Y-R tumor = assay: PKHB1 treatment of L5178Y-R tumor-bearing mice; assay type: in vivo, BALB/c mice; conditions: 200 μg PKHB1 intraperitoneally weekly
Experimental: The heparinized blood acquired from mice, was assessed using the Automatic Hematology Analyzer KontroLab. Blood smears were performed and fixed with methanol, stained with Wright's, and observed under the microscope to perform differential blood white cells counts.
Six-to-eight-week-old BALB/c female mice were maintained in controlled environmental conditions (25° C. and 12h light/dark cycle) and were supplied with rodent food (Science diet) and water ad libitum. • Prophylactic vaccinations: L5178Y-R cells (1.5, 3, 5×10^6) were treated with 300 μM of PKHB1 (CC100) for 2h. Cell death was confirmed using trypan blue staining and flow cytometry. Treated cells were inoculated subcutaneously in 100 μl PBS into the left hind of the leg, whereas 2×10^6 untreated control cells were inoculated into the right hind 7 days later (42). • Tumor establishment and measurement: Tumor was established by the subcutaneous injection of 1×10^6 L5178Y-R cells in 100 μL PBS, into the left hind of the leg. Tumor volume and weight were measured three times per week using a caliper (Digimatic Caliper Mitutoyo Corporation, Japan) and a digital scale (American Weigh Scale-600-BLK, USA). When the tumor reached 100 mm^3 the first PKHB1 injection (200 μg) was applied (day 0). Tumor volume was determined with the formula: tumor volume (mm3)=[…]*A*B*C. Long-term memory assay: Mice in complete remission after PKHB1 treatment, were rechallenged with 2×10^6 cells in 100 μL of PBS, into the opposite limb, and tumor volume was measured like described above.
Tissues and organs were obtained and fixed in 10% neutral formalin, embedded in paraffin, sectioned (5 µm thickness) and stained with H&E (Sigma-Aldrich, St Louis, Mo., USA). Histopathological analysis was done by an external veterinarian pathologist (National professional certificate 2593012). Immunohistochemistry was done using the appropriate primary antibody (CD4/CD8) and adding the biotinylated secondary antibody. Finally, hematoxylin-counterstained slides are coverslipped using resin as mounting solution and observed under microscopy.

[13] = pre-incubated 30 min with Ca2+ chelator BAPTA
[14] = pre-incubated 30 min with pan-caspase inhibitor Q-VD-OPH

**Q.** For `CSCC[C@H](NC(=O)[C@@H](NC(=O)[C@@H](NC(=O)[C@H](Cc1ccc(O)cc1)NC(=O)[C@H](Cc1ccccc1)NC(=O)[C@H](CCCNC(=N)N)NC(=O)[C@H](N)CCCCN)C(C)C)C(C)C)C(=O)N[C@@H](Cc1c[nH]c2ccccc12)C(=O)N[C@@H](CCCCN)C(=O)N[C@H](CCCCN)C(=O)O` [PKHB1, (D)K-R-F-Y-V-V-M-W-K-(D)K], which CC50 [1] is on record?
**A.** The CC50 was 300 µM.

**Q.** What about the “cell death (Ann-V-APC/PI positive cells)” value (MOLT-4 [2]; 100, 200 and 300 μM) of the same compound?
**A.** The value was “concentration-dependent”.

**Q.** And the cell death percentage (MOLT-4 [2]; left alone)?
**A.** The cell death percentage was 57%±4.

**Q.** And the cell death percentage (MOLT-4 [2]; [13])?
**A.** Its cell death percentage is 38%±3.

**Q.** What about the cell death percentage (MOLT-4 [2]; [14]) of the same compound?
**A.** The cell death percentage was 51%±6.

**Q.** What about the “expression of HSP90, HSP70, CRT and HMGB1 in cellular lysates” value (CEM [3]) of the same compound?
**A.** Its value is “decrease”.

**Q.** What about the “expression of HSP90, HSP70, CRT and HMGB1 in supernatants” value (CEM [3]; vs untreated cells) of the same compound?
**A.** The value was “increased”.

**Q.** And the “expression of HSP90, HSP70, CRT and HMGB1 in cellular lysates” value (MOLT-4 [4])?
**A.** The value was “decrease”.

**Q.** What about the “expression of HSP90, HSP70, CRT and HMGB1 in supernatants” value (MOLT-4 [4]; vs untreated cells) of the same compound?
**A.** Its value is “increased”.

**Q.** What about the “cell viability of non-cancerous cells” value [5] of the same compound?
**A.** The value was “did not significantly affected cell viability”.

**Q.** What about the “cell viability of non-cancerous cells” value [6] of the same compound?
**A.** The value was “did not significantly affected cell viability”.

**Q.** And the “loss of mitochondrial membrane potential” value (CEM [7])?
**A.** Its value is 49%±5.

**Q.** What about the “loss of mitochondrial membrane potential” value (MOLT-4 [8]) of the same compound?
**A.** Its value is 61%±4.

**Q.** And the “presence of ATP in supernatants” value (L5178Y-R [9])?
**A.** Its value is “significantly augmented”.

**Q.** What about the “loss of mitochondrial membrane potential” value (L5178Y-R [10]) of the same compound?
**A.** Its value is 51%±8.

**Q.** What about the “cell death (Ann-V-APC/PI positive cells)” value (CEM [11]; 100, 200 and 300 μM) of the same compound?
**A.** The value was “concentration-dependent”.

**Q.** And the cell death percentage (CEM [11]; left alone)?
**A.** Its cell death percentage is 51%±4.

**Q.** What about the cell death percentage (CEM [11]; [13]) of the same compound?
**A.** Its cell death percentage is 18%±11.

**Q.** What about the cell death percentage (CEM [11]; [14]) of the same compound?
**A.** Its cell death percentage is 48%±5.

**Q.** What about the CC50 [12] of the same compound?
**A.** The CC50 was 200 µM.

**Q.** What about the “tumor histology (H&E), leukocyte infiltration” value (L5178Y-R tumor; day 18) of the same compound?
**A.** The value was “contained a mixture of lymphocytes and polymorphonuclear cells”.

**Q.** What about the tumor regression (L5178Y-R tumor; day 30) of the same compound?
**A.** Its tumor regression is “complete tumor regression in most of the mice”.
